Holding throughout (experiment): stopped-flow CO2 hydrase assay
Holding throughout (format): biochemical

Assay [1] deals with T1, hCA I (Homo sapiens, UniProt P00915).
T1 construct: gene CA1; recombinant, obtained in-house; cytosolic isoform
An excerpt:
stopped-flow CO2 hydrase assay on hCA I

Assay [2] deals with T2, VchCAα (Vibrio cholerae, UniProt Q9KMP6).
T2 construct: gene VC_A0274

Assay [3] has as its target T3, hCA II (Homo sapiens, UniProt P00918).
T3 construct: gene CA2; recombinant, obtained in-house; cytosolic isoform
The text has this:
stopped-flow CO2 hydrase assay on hCA II

Assay [4] concerns the target T4, VchCAβ (Vibrio cholerae, UniProt Q9KUD6).
T4 construct: gene VC_0586

SMILES strings stand for the structures. pKi: −log10 of the molar value.

T1 sequence (P00915 2-261): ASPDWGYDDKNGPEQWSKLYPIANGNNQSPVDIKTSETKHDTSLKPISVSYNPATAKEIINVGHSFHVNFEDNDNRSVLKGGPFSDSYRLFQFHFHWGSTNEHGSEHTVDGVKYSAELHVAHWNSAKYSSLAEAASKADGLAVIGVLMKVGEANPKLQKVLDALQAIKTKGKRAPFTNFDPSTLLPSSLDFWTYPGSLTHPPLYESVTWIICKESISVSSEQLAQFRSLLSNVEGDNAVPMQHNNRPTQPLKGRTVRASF
T2 sequence (Q9KMP6 21-239 limits assumed): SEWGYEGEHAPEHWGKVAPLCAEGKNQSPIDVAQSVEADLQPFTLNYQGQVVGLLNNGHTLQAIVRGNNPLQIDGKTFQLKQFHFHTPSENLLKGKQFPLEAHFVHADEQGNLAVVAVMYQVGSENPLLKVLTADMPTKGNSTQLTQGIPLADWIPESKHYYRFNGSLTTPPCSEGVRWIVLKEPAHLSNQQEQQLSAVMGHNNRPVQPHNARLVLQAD
T4 sequence (Q9KUD6 1-222): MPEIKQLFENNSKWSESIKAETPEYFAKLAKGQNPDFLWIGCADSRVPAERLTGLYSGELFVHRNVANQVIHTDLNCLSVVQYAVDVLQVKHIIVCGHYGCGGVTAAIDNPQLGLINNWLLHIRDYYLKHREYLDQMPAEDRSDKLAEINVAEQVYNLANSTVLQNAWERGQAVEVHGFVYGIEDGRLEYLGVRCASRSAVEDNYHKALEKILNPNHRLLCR

For the compound `NS(=O)(=O)Nc1cccc(S(=O)(=O)N2CCN(C(c3ccccc3)c3ccccc3)CC2)c1` [6a, 1-Benzhydryl-4-((3-sulfamoylaminophenyl)sulfonyl)piperazine], the negative-log Ki (pKi) (in general, the negative decadic logarithm of the Ki, by convention in mol/L) in assay [1] is 7.18; in assay [2] it was 6.48; in assay [3], 6.38; in assay [4], 5.33.
In the same order, the values of `NS(=O)(=O)Nc1ccc(S(=O)(=O)N2CCN(C(c3ccccc3)c3ccccc3)CC2)cc1` [6b, 1-Benzhydryl-4-((4-sulfamoylaminophenyl)sulfonyl)piperazine] are 6.26, 6.63, 6.44 and 5.73.
On the same counts, the results for `NS(=O)(=O)Nc1ccccc1S(=O)(=O)NCC(=O)N1CCN(C(c2ccccc2)c2ccccc2)CC1` [6c, N-(2-(4-Benzhydrylpiperazin-1-yl)-2-oxoethyl)-2-(sulfamoylamino)benzenesulfonamide] are 6.08, 6.03, 6.07 and below 5.00.
In the same order, the values of `NS(=O)(=O)Nc1cccc(S(=O)(=O)NCC(=O)N2CCN(C(c3ccccc3)c3ccccc3)CC2)c1` [6d, N-(2-(4-Benzhydrylpiperazin-1-yl)-2-oxoethyl)-3-(sulfamoylamino)benzenesulfonamide] are 7.24, 7.02, 6.40 and 5.42.
With `NS(=O)(=O)Nc1ccccc1S(=O)(=O)N1CCC(C(=O)N2CCN(C(c3ccccc3)c3ccccc3)CC2)CC1` [6e, (4-Benzhydrylpiperazin-1-yl)(1-((2-sulfamoylaminophenyl)sulfonyl)piperidin-4-yl)methanone], the pKi was 6.24 in assay [1], 6.06 in assay [2], 5.87 in assay [3] and below 5.00 in assay [4].
In the same order, the values of `NS(=O)(=O)Nc1cccc(S(=O)(=O)N2CCC(C(=O)N3CCN(C(c4ccccc4)c4ccccc4)CC3)CC2)c1` [6f, (4-Benzhydrylpiperazin-1-yl)(1-((3-sulfamoylaminophenyl)sulfonyl)piperidin-4-yl)methanone] are 7.37, 6.18, 6.24 and 5.42.
In the same order, the values of `NS(=O)(=O)Nc1ccc(S(=O)(=O)N2CCC(C(=O)N3CCN(C(c4ccccc4)c4ccccc4)CC3)CC2)cc1` [6g, (4-Benzhydrylpiperazin-1-yl)(1-((4-sulfamoylaminophenyl)sulfonyl)piperidin-4-yl)methanone] are 6.22, 6.85, 6.64 and 5.60.
For the compound `NS(=O)(=O)Nc1ccccc1S(=O)(=O)N1CCN(C(c2ccc(F)cc2)c2ccc(F)cc2)CC1` [6h, 1-(Bis(4-Fluorophenyl)methyl)-4-((2-sulfamoylaminophenyl)sulfonyl)piperazine], the pKi in assay [1] is 6.07; in assay [2], 5.55; in assay [3], 5.93; in assay [4], below 5.00.
In the same order, the values of `NS(=O)(=O)Nc1cccc(S(=O)(=O)N2CCN(C(c3ccc(F)cc3)c3ccc(F)cc3)CC2)c1` [6i, 1-(Bis(4-Fluorophenyl)methyl)-4-((3-sulfamoylaminophenyl)sulfonyl)piperazine] are 7.12, 6.23, 6.41 and 5.76.
On the same counts, the results for `NS(=O)(=O)Nc1ccc(S(=O)(=O)N2CCN(C(c3ccc(F)cc3)c3ccc(F)cc3)CC2)cc1` [6j, 1-(Bis(4-Fluorophenyl)methyl)-4-((4-sulfamoylaminophenyl)sulfonyl)piperazine] are 7.19, 6.56, 6.45 and 5.36.
On the same counts, the results for `NS(=O)(=O)Nc1ccccc1S(=O)(=O)NCC(=O)N1CCN(C(c2ccc(F)cc2)c2ccc(F)cc2)CC1` [6k, N-(2-(4-(bis(4-Fluorophenyl)methyl)piperazin-1-yl)-2-oxoethyl)-2-(sulfamoylamino)benzenesulfonamide] are 6.47, 5.76, 5.84 and below 5.00.
As to `NS(=O)(=O)Nc1cccc(S(=O)(=O)NCC(=O)N2CCN(C(c3ccc(F)cc3)c3ccc(F)cc3)CC2)c1` [6l, N-(2-(4-(bis(4-Fluorophenyl)methyl)piperazin-1-yl)-2-oxoethyl)-3-(sulfamoylamino)benzenesulfonamide], the pKi was 7.15 in assay [1], 7.04 in assay [2], 6.66 in assay [3] and below 5.00 in assay [4].
For the compound `NS(=O)(=O)Nc1ccc(S(=O)(=O)NCC(=O)N2CCN(C(c3ccc(F)cc3)c3ccc(F)cc3)CC2)cc1` [6m, N-(2-(4-(bis(4-Fluorophenyl)methyl)piperazin-1-yl)-2-oxoethyl)-4-(sulfamoylamino)benzene sulfonamide], the pKi was 7.32 in assay [1], 6.98 in assay [2], 6.68 in assay [3] and 5.33 in assay [4].
On the same counts, the results for `NS(=O)(=O)Nc1ccccc1S(=O)(=O)N1CCC(C(=O)N2CCN(C(c3ccc(F)cc3)c3ccc(F)cc3)CC2)CC1` [6n, (4-(bis(4-Fluorophenyl)methyl)piperazin-1-yl)(1-((2-sulfamo-ylaminophenyl)sulfonyl)piperidin-4-yl)methanone] are 6.17, 5.43, 6.23 and below 5.00.
In the same order, the values of `NS(=O)(=O)Nc1cccc(S(=O)(=O)N2CCC(C(=O)N3CCN(C(c4ccc(F)cc4)c4ccc(F)cc4)CC3)CC2)c1` [6o, (4-(bis(4-Fluorophenyl)methyl)piperazin-1-yl)(1-((3-sulfamoylaminophenyl)sulfonyl)piperidin-4-yl)methanone] are 7.14, 6.30, 6.18 and 5.80.
Consider `NS(=O)(=O)Nc1ccc(S(=O)(=O)N2CCC(C(=O)N3CCN(C(c4ccc(F)cc4)c4ccc(F)cc4)CC3)CC2)cc1` [6p, (4-(bis(4-Fluorophenyl)methyl)piperazin-1-yl)(1-((4-sulfamo-ylaminophenyl)sulfonyl)piperidin-4-yl)methanone], for which the negative logarithm of the Ki (pKi) in assay [1] was 7.31; in assay [2], 6.40; in assay [3] it was 6.74; in assay [4], 5.34.

Source of the values: paper PMC6041819, “Synthesis of novel benzenesulfamide derivatives with inhibitory activity against human cytosolic carbonic anhydrase I and II and Vibrio cholerae α- and β-class enzymes” (Journal of Enzyme Inhibition and Medicinal Chemistry, 2018).
